“Also recorded” adds a separate entry of the source.

For assay [1], the system named is SARS-CoV-2 Delta variant (B.1.617.2). As to the kind of experiment: Virucidal assay against SARS-CoV-2. Type of assay: cell-based. As to conditions: for virucidal activity against SARS-CoV-2: in words.
Assay [2] has the same test system. The class given is cell-based.

Consider `C[C@H](CCC(=O)O)[C@H]1CC[C@H]2[C@@H]3[C@@H](O)C[C@@H]4C[C@H](O)CC[C@]4(C)[C@H]3CC[C@]12C` [UDCA (9), ursodeoxycholic acid], for which the “virucidal activity against SARS-CoV-2” value in assay [1] is recorded as “did not exhibit antiviral or virucidal activity”; in assay [1] (9), “did not show activity”. Also, in assay [2], the “antiviral activity toward SARS-CoV-2” value is “did not exhibit antiviral activity; also recorded: did not exhibit antiviral or virucidal activity”.
With `C[C@H](CCC(=O)O)[C@H]1CC[C@H]2[C@@H]3CC[C@@H]4C[C@H](O)CC[C@]4(C)[C@H]3C[C@H](O)[C@]12C` [DCA (5), deoxycholic acid], the “virucidal activity against SARS-CoV-2” value in assay [1] is on record as “did not exhibit antiviral or virucidal activity”; in assay [1] (listed as DCA, 5) it was “did not show activity”. Besides, the “antiviral activity toward SARS-CoV-2” value in assay [2] is on record as “did not exhibit antiviral activity; also recorded: did not exhibit antiviral or virucidal activity”.
`C[C@H](CCC(=O)[O-])[C@H]1CC[C@H]2[C@@H]3CC[C@@H]4C[C@H](O)CC[C@]4(C)[C@H]3CC[C@]12C.C[N+](C)(C)CCO` [[LCA][Z] (4)]: the “virucidal activity, times lower than the free acid LCA (1)” value in assay [1] (ratio of EC50 values) worked out at 3.27 times.
Turning to `C[C@H](CCC(=O)O)[C@H]1CC[C@H]2[C@@H]3[C@H](O)C[C@@H]4C[C@H](O)CC[C@]4(C)[C@H]3CC[C@]12C` [CDCA (13), chenodeoxycholic acid], the figures for the “virucidal activity against SARS-CoV-2” value in assay [1] and in assay [1] (13) were “did not exhibit antiviral or virucidal activity” and “did not show activity”, respectively. For the same molecule, the “antiviral activity toward SARS-CoV-2” value in assay [2] was “did not exhibit antiviral activity; also recorded: did not exhibit antiviral or virucidal activity”.
With `C[C@H](CCC(=O)O)[C@H]1CC[C@H]2[C@@H]3CC[C@@H]4C[C@H](O)CC[C@]4(C)[C@H]3CC[C@]12C` [LCA (1), lithocholic acid], the “SI (selectivity index)” value in assay [1] (SI = CC50/EC50, virucidal assay) is listed as over 5.16. Moreover, the “antiviral activity toward SARS-CoV-2” value in assay [2] is recorded as “did not exhibit antiviral activity”.

(Values after PMC12679602 (RSC Advances, 2025).)
